“Also recorded” adds a separate entry of the source.
What was measured:
wt mitochondria = test: Cytochrome b5-dependent NADH oxidation assay; assay type: biochemical, Balb/cJ mice; conditions: 10 μM BID α6 14mer, 20 min
Procedure: (d), mitochondria were preincubated for 2 min with 800 pmol CsA×mg protein^−1. (a), no additions. After 15 min, respiratory chain inhibitors were added and after another 2 minutes NADH fluorescence reading started. Arrow, 20 nmol NADH×mg protein^−1. In (e), 200 nmol mersalyl×mg protein was added 1 min before NADH.
In the cytochrome b5-dependent NADH oxidation assay, 1 mg/ml mitochondria were incubated in EB and treated as indicated. 400 pmol CCCP, 2 nmol rotenone and 1 nmol antimycin A×mg protein^−1 were added after the time indicated and the reaction transferred to a cuvette. After 2 min, 10 μM NADH was added and its oxidation monitored as the decrease in NADH fluorescence in a LS50B spectrofluorimeter (Perkin Elmer) set with λex=366 nm and λem=455 nm, with 5 nm slits.

BAK = BAK oligomerization (BMH crosslinking, anti-BAK immunoblot); assay type: biochemical, Balb/cJ mice; conditions: 10 μM BID α6 14mer, 30 min
Procedure: In lanes 7-8 mitochondria were pretreated with 800 pmol CsA×mg protein^−1 for 3 mins. After the indicated time, DMSO (lanes 1-2) or 10 mM BMH (lanes 3-8) was added, and after another 30 min the crosslinking reaction was quenched (Wei et al., 2001). The mitochondria were subjected to SDS-PAGE and immunoblot with anti BAK antibody. Star, BAK multimers.
To also determine if the BID α6 14mer (SEQ ID NO:1) modulated BAK oligomerization, mitochondria were incubated for 30 min with 10 μM BID α6 14mer in the presence or in the absence of 1 μM CsA. Crosslinking with BMH, SDS-PAGE and anti BAK immunoblotting was carried out.

mitochondria [1] = test: Cytochrome c release from isolated liver mitochondria (immunoblot densitometry or ELISA); assay type: biochemical, Balb/cJ mice
Procedure: Mitochondria were isolated from liver of Balb/cJ mice by standard differential centrifugation, and resuspended in isolation buffer (IB) (0.2 M sucrose, 10 mM Tris-MOPS pH 7.4, 0.1 mM EGTA-Tris, 0.1% delipidated BSA).
At the indicated time, mitochondria were pelleted by centrifugation at 12000×g at 4° C. for 3 min, and resuspended in the same volume of EB. Cytochrome c release was determined either by densitometry (Stratagene Eagle Eye II, BioRad) of immunoblots, or by rat/mouse specific ELISA performed on mitochondrial pellet and supernatant diluted 1:20 in PBS containing 0.5% Triton X-100 (R&D systems, MN). Cytochrome c is reported as the percentage of the supernatant over the total (pellet plus supernatant).
For SDS-PAGE, 20 μg of mitochondrial protein was loaded in each lane of a 12% NuPAGE (NoVex, CA) gel. After separation, proteins were transferred onto PVDF membranes (Immobilon-P, Millipore, Calif.) and membranes were probed as indicated with the following primary antibodies: anti-cytochrome c (Pharmingen, CA, 1:1000); anti-BID (1:1500); anti-BAK (Calbiochem, CA, 1:1000). HRPO-conjugated secondary antibodies (CalTag, CA, 1:2000) were visualized by chemiluminescence (Amersham, N.J.).
(§1) Mitochondria were incubated with increasing amounts of digitonin to assess how much cytochrome c was released from IMS by the selective solubilization of the OM (Hoppel and Cooper, 107, 367-375, 1968). To monitor interaction of digitonin with the […], uncoupled respiration in the presence of excess exogenous cytochrome c was assessed. Specifically 0.5 mg/ml mitochondria was incubated in EB with the indicated concentration of digitonin. After 5 minutes, mitochondria were centrifuged and cytochrome c content in the resulting pellet and supernatant were determined as described. Uncoupled JO2, uncoupled respiratory rate was recorded in parallel experiments. After 5 minutes of incubation with the indicated concentration of digitonin, mitochondria were treated with 400 pmol CCCP×mg protein-1 in the presence of 10 nmol cytochrome c×mg protein.

mitochondria [2] = test: Mitochondrial swelling by side scatter at 545 nm; assay type: biochemical, Balb/cJ mice; conditions: 10 μM 14mer
Procedure: tBID was evaluated to determine if it causes any swelling or depolarization that might reflect an opening of the PTP. Swelling of 0.5 mg/ml mitochondria incubated in EB was monitored by changes in side scatter at 545±2.5 nm using LS-50B spectrofluorimeter equipped with magnetic stirring at 25° C. Membrane potential changes of 0.5 mg/ml mitochondria incubated in experimental buffer were monitored from the dequenching of a 0.3 μM Rhodamine 123 (Molecular Probes, OR) solution in a LS-50B spectrofluorimeter at 25° C., using excitation and emission wavelengths set at 503±2.5 nm and 525±5 nm, respectively.
To determine if the BID α6 14mer (SEQ ID NO:1) induced mitochondrial swelling or release of cytochrome c across the mitochondrial outer membrane, mitochondria at 1 mg/ml were incubated in experimental buffer and, where indicated, 20 μM Ca^2+ and 10 μM 14mer were added. Where noted, mitochondria were preincubated with CsA. […] Mitochondria were incubated with 10 μM 14mer in the presence or in the absence of 1 μM CsA. At the indicated time in minutes, mitochondria were pelleted by centrifugation and cytochrome c in the pellet and in the supernatant was determined.

[3] = test system: calcein loaded mitochondria; test: Release of matrix-entrapped calcein (transient PTP opening); assay type: biochemical, Balb/cJ mice; conditions: 10 μM BID α6 14mer
Procedure: To assess calcein release, mitochondria suspended in IB without BSA were loaded with 10 nmol×mg protein^−1 calcein-AM (Molecular Probes, Eugene, Oreg.) for 20 mins at room temperature in the dark. Following two washes in IB, the calcein loaded mitochondria were resuspended in IB at a final concentration of 10 mg/ml. 0.5 mg/ml calcein loaded mitochondria were incubated in EB and treated as described. After the indicated time, mitochondria were pelleted. Calcein was measured in an LS-50B spectrofluorimeter (Perkin Elmer) with excitation and emission wavelengths set at 488±2.5 nm and 542±2.5 nm, respectively.
After 30 min mitochondria were spun at 14000 g for 3 min at 4 C and the calcein content in the pellet and in the supernatant was determined. […] To determine if a BID α6 mutation variant, BID α6 mutein (SEQ ID NO:7), would inhibit cytochrome c release, His-tag p22 wt BID and the BID α6 mutein were expressed, purified on a Ni^2+ column, and cleaved with caspase 8.
Mitochondria were loaded with calcein and treated with 10 μM BID α6 14mer. Where noted, mitochondria were pretreated with 1 μM CsA. At the indicated time, mitochondria were pelleted by centrifugation and calcein in the pellet and in the supernatant was determined.

Bak −/− mitochondria = test: Digitonin releasable cytochrome c pool; assay type: biochemical; conditions: digitonin concentration that does not interfere with IM function (80 pmol × mg protein^−1, 5 mins)
mitochondria [4] = test: Uncoupled respiration (JO2) of digitonin-treated mitochondria; assay type: biochemical, Balb/cJ mice; conditions: CCCP, exogenous cytochrome c
Procedure: as §1, with “protein. Approximately 16% of the total cytochrome c could be released by digitonin without substantial respiratory inhibition (no interference of digitonin with the IM) (Table 1), a percentage in agreement with the pool of cytochrome c estimated to reside in the IMS (Bernardi and Azzone, 1981). Therefore, tBID must deploy additional events to enable the release of nearly all cytochrome c from the mitochondrion.” for “protein.”

NH2-XMLXXXXLLAKKVA—COOH [BID α6 14mer, 14 amino acid peptide of the BID α6 helix]
mobilization of cytochrome c (cytochrome b5-dependent NADH oxidation) (wt mitochondria): induced the mobilization of cytochrome c; also recorded: induces cytochrome c redistribution
BAK oligomerization (BAK): did not result in BAK oligomerization; also recorded: does not induce BAK oligomerization
release of cytochrome c across the mitochondrial outer membrane (mitochondria [1]; 10 μM 14mer): nor did it trigger the actual release of cytochrome c across the mitochondrial outer membrane; also recorded: does not cause cytochrome c release across the outer membrane
mitochondrial swelling (mitochondria [2]): did not induce swelling of mitochondria; also recorded: does not induce mitochondrial swelling
calcein release (onset of transient PT) [3]: resulted in the efflux of mitochondrial matrix entrapped calcein; also recorded: causes calcein release from mitochondria

C[C@@H]1CC[C@@]2(OC1)O[C@H]1[C@@H](O)[C@H]3[C@@H]4CC[C@H]5C[C@@H](O[C@@H]6O[C@H](CO)[C@H](O[C@@H]7O[C@H](CO)[C@@H](O)[C@H](O[C@@H]8OC[C@@H](O)[C@H](O)[C@H]8O)[C@H]7O[C@@H]7O[C@H](CO)[C@H](O)[C@H](O[C@@H]8O[C@H](CO)[C@@H](O)[C@H](O)[C@H]8O)[C@H]7O)[C@H](O)[C@H]6O)[C@H](O)C[C@]5(C)[C@H]4CC[C@]3(C)[C@H]1[C@@H]2C [Digitonin]
release of total cytochrome c by digitonin (Bak −/− mitochondria): 19.2±4.8%
Cytochrome c release (% of total) (mitochondria [1]; Digitonin 48 pmol × mg protein^−1, 5 minutes): 10.7 % of total
Cytochrome c release (% of total) (mitochondria [1]; Digitonin 80 pmol × mg protein^−1, 5 minutes): 16.4 % of total
Cytochrome c release (% of total) (mitochondria [1]; Digitonin 145 pmol × mg protein^−1, 5 minutes): 26.6 % of total
total cytochrome c released by digitonin (mitochondria [1]; without substantial respiratory inhibition): Approximately 16%
Uncoupled JO2 (mitochondria [4]; Digitonin 48 pmol × mg protein^−1): 60 nAt × min^−1 × mg protein^−1
Uncoupled JO2 (mitochondria [4]; Digitonin 80 pmol × mg protein^−1): 60 nAt × min^−1 × mg protein^−1
Uncoupled JO2 (mitochondria [4]; Digitonin 145 pmol × mg protein^−1): 46.7 nAt × min^−1 × mg protein^−1
